Consider eight molecules from ChEMBL document CHEMBL1132262, “Estrogen receptor subtype-selective ligands: asymmetric synthesis and biological evaluation of cis- and trans-5,11-dialkyl- 5,6,11, 12-tetrahydrochrysenes” (J Med Chem, 1999).

The target in this assay is Estrogen receptor beta (Homo sapiens) (UniProt Q92731). Nature of the assay: Binding affinity for human ER(estrogen receptor)beta.
Sequence of Estrogen receptor beta (Homo sapiens) (Q92731 whole entry): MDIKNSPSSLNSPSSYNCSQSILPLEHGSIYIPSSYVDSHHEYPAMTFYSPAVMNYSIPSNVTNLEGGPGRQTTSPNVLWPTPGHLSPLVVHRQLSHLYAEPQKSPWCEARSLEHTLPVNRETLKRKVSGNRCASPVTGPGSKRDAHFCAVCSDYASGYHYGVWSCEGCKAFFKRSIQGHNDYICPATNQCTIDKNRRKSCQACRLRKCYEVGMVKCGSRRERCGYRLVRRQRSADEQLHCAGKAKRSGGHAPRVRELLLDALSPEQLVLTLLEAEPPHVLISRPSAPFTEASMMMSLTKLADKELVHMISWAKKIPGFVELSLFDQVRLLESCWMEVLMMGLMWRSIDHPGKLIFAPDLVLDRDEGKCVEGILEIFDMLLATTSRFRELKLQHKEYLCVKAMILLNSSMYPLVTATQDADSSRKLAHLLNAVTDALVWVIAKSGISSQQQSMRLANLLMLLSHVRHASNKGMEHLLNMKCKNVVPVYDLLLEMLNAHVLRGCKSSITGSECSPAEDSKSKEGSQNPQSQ
As for `CCC[C@H]1Cc2cc(O)ccc2C2=C1c1ccc(O)cc1C[C@@H]2CCC`, the Relative binding affinity stood at 5.1.

Consider `Oc1ccc2c(c1)CCC1=C2CCc2cc(O)ccc21`, for which the Relative binding affinity turned out to be 6.5. As for `C[C@@H]1Cc2cc(O)ccc2C2=C1c1ccc(O)cc1C[C@@H]2C`, the Relative binding affinity turned out to be 254. Take `CCCC1Cc2cc(O)ccc2C2=C1c1ccc(O)cc1CC2CCC` (stereo not drawn): the Relative binding affinity worked out at 92.3. For `CC1Cc2cc(O)ccc2C2=C1c1ccc(O)cc1C[C@@H]2C` (single isomer, unassigned), the Relative binding affinity was 75. `C[C@]12CC[C@@H]3c4ccc(O)cc4CC[C@H]3[C@@H]1CC[C@@H]2O`: the Relative binding affinity turned out to be 100. In the case of `CCC[C@@H]1Cc2cc(O)ccc2C2=C1c1ccc(O)cc1C[C@H]2CCC`, the Relative binding affinity is 26.

In turn, `CC1Cc2cc(O)ccc2C2=C1c1ccc(O)cc1C[C@H]2C` (single isomer, unassigned) showed a Relative binding affinity of 76.
